In one data set the test system is MCF-7-Z3 cells. Nature of the data set: Cyclophosphamide sensitivity of MCF-7 cell lines in culture. It counts as cell-based, human. How it is done:
(§1) To test for drug sensitivity, 1×10^5 cells were plated in 30-mm tissue culture plates (Falcon 3046) in duplicate. Drugs were added 18-24 hours after seeding. Cells were allowed to grow for times ranging up to 5 days after drug treatment, and the final cell number was then determined. Cells were rinsed with phosphate buffered saline or Hank's buffered saline, dispersed using trypsin-EDTA (GIBCO/BRL, Inc.), and then counted with a hemocytometer. Results are expressed as a growth ratio, i.e., the number of cells in plates containing drug as a percentage of the corresponding drug-free controls (mean±range of duplicate determinations).
(§2) Transfection of MCF-7 cells with the cytochrome P450 2B1 expression plasmid, selection of neomycin-resistant clones, characterization of the expressed cytochrome P450 2B1 protein, and sensitivity of cell lines to drugs were carried out as described in Example 7 for the 9L cytochrome P450 2B1-expressing cell lines.

Data set [1] relates to cytochrome P450 2B1-expressing MCF-7 cell lines P2, P3, P5, P8, P9 and P26. The data set is described as above. In kind it is cell-based, human. How it is done:
as §1, §2

The next data set concerns parental MCF-7 cells. The description is as above. In kind it is cell-based, human. How it is done: as §1, §2
Another data set has as its system C6VIK cells. In words: Ganciclovir sensitivity, cell proliferation assay. In kind it is cell-based. The settings on record: Rattus norvegicus, 96 h; four-day period; read-out: Fifty percent inhibition of growth. How it is done:
(§3) Ganciclovir Sensitivity Assays in Culture: To measure the sensitivity of isolated cells, cells were plated in 24-well plates at a density of 10^4 cells per well. The next day, medium was replaced with medium containing ganciclovir (Cytovene, Burroughs Wellcome) at varying concentrations (0-1 μM) in quadruplicate. Four days later, cells were harvested using trypsin and counted using a cell counter (Coulter Electronics Ltd., Luton, United Kingdom). Cell growth is expressed as the percentage of cells compared to the number of cells without treatment (100%).

The subject of data set [2] is C6VIKWT cells. In words: Ganciclovir sensitivity, cell proliferation assay. In kind it is cell-based. The settings on record: Rattus norvegicus, 96 h; four-day period; read-out: Fifty percent inhibition of growth. As to the method: as §3
Data set [3] has as its system C6VIKWT cells. The following applies: colony survival; drug from day 7 for 9-12 days. As to the method:
To measure the ganciclovir sensitivity of colony formation, cells were plated in duplicate at a density of 500 cells per 25 cm^2 culture flask. Seven days later, ganciclovir was added at various concentrations (0, 0.1, 0.5, 1, 10, 50, 100, 300 μM) in quadruplicate and incubation was for 9-12 days, with medium changes every 3-5 days. Cells were then fixed with 100% methanol, and stained with Giemsa (Freshney, R. I., "Culture of Animal Cells," in: A Manual of Basic Techniques, 2d ed., New York, Alan R. Liss, Inc., pp. 170-171 (1987)), and colonies ≥2 mm in diameter were counted.

Data set [4] has as its system C6BAG cells co-cultured with C6VIKWT cells. Nature of the data set: Delayed co-culture, ganciclovir sensitivity of recipient colonies. It counts as cell-based, rat. How it is done:
(§4) Donor C6VIK or C6VIKWT cells were then added to the cultures at a ratio of 1:2 (5×10^4 recipient cells: 10^5 donor cells). Control cultures consisted of C6BAG or C6BBAG cells alone, or C6BA6 or C6BBAG cells co-plated with "donor" C6BU1 or C6BWT cells, after delay, as above. After 10 days, ganciclovir was added at varying concentrations (0-300 μM) and cells were incubated for another 9-12 days with the drug. Cells were then fixed with 0.5% glutaraldehyde and stained histochemically for beta-galactosidase activity, as described (Price et al., Proc. Natl. Acad. Sci. USA 84:1141-1145 (1987)), and colonies were counted.

The subject of data set [5] is C6BBAG cells co-cultured with C6VIKWT cells. The data set is described as above. In kind it is cell-based. The following applies: Rattus norvegicus, ratio 1:2, read-out: ganciclovir concentration at which 50% of cells grew. How it is done:
as §4

A further data set deals with C6BAG and C6VIKWT cells. Nature of the data set: Ganciclovir treatment of combined subcutaneous tumors. In kind it is in vivo, nude mice. How it is done: Sequential injections of 10^5 C6BAG cells followed immediately by 10^6 C6BU1 cells, C6VIK cells, or C6VIKWT cells at the same injection site, were carried out as above using 20 animals for each combination. […] Tumor volume was assessed as the percentage increase over the volume at the beginning of treatment through 17 days.

In another data set the test system is C6BAG cells alone. Nature of the data set: GCV treatment of subcutaneous tumors. In kind it is in vivo, nude mice. The settings on record: subcutaneous inoculation.

This is an account of results in patent US5688773A, “Method of selectively destroying neoplastic cells” (priority 1994, dated 1997).

Regarding `O=P1(N(CCCl)CCCl)NCCCO1` (stereo not drawn) [cyclophosphamide], the Sensitivity to cyclophosphamide result with MCF-7-Z3 cells and in the data set on parental MCF-7 cells was “insensitive to high concentrations” throughout. The “Sensitivity to cyclophosphamide cytotoxicity” value in data set [1] is listed as “highly sensitive”.

Consider `Nc1nc(O)c2ncn(COC(CO)CO)c2n1` [ganciclovir], for which the IC50 amounted to 10 nM in the data set with C6VIK cells; 0.3 nM in the data set on C6VIKWT cells [2]; 3000 nM in data set [4] (Rattus norvegicus, ratio 1:2, read-out: ganciclovir concentration at which 50% of cells grew); 30000 nM in data set [5]. Besides, the “fold more sensitive than parental line C6VIK at 50% surviving colonies” value in the data set with C6VIKWT cells [3] is reported as 300 fold. Besides, in data set [4] (ratio 1:2), the “Survival of beta-galactosidase-positive recipient colonies” value is given as “almost complete ablation of the recipient cells”. Also, the “Tumor size compared to C6BAG and C6BU1 tumors” value with C6BAG and C6VIKWT cells (14 day course, 25 mg/kg twice a day intraperitoneally) is recorded as “even greater decrease in the size”. Besides, the Tumor regression entry with C6BAG and C6VIKWT cells (C6VIK-WT and C6BAG inoculated simultaneously, GCV treatment) was “regression of tumors in most nude mice”; in the data set with C6BAG cells alone, “not with C6BAG cells alone”.
